Test results as given in US7531577B2, “Arylsulfonamidyl tetralin derivatives and uses thereof” (Roche Palo Alto LLC, priority 2006, dated 2009).
Where a name gives a salt, the structure may show the parent alone.

How the values were obtained:
[1] = molecular target: T1, recombinant human 5-HT6 receptor (Homo sapiens, UniProt P50406); test: Radioligand binding, [3H]LSD competition in membranes of HEK293 cells expressing 5-HT6; conditions: [3H]LSD displacement, pH 7.4, 37° C., read-out: pKi for 5-HT6 (converted)
T1 construct: expressed in transfected cells; membranes
Experimental: The binding activity of compounds of this invention in vitro was determined as follows. Duplicate determinations of 5-HT6 ligand affinity were made by competing for binding of [^3H]LSD in cell membranes derived from HEK293 cells stably expressing recombinant human 5-HT6 receptor. Duplicate determinations of 5-HT2A ligand affinity were made by competing for binding of [^3H]Ketanserin (3-(2-(4-(4-fluorobenzoyl)piperidinol)ethyl)-2,4(1H,3H)-quinazolinedione) in cell membranes derived from CHO-K1 cells stably expressing recombinant human 5-HT2A receptor. Membranes were prepared from HEK 293 cell lines by the method described by Monsma et al., Molecular Pharmacology, Vol. 43 pp. 320-327 (1993), and from CHO-K1 cell lines as described by Bonhaus et al., Br J Pharmacol. June; 115(4):622-8 (1995).
For estimation of affinity at the 5-HT6 receptor, all determinations were made in assay buffer containing 50 mM Tris-HCl, 10 mM MgSO4, 0.5 mM EDTA, 1 mM ascorbic acid, pH 7.4 at 37° C., in a 250 microliter reaction volume. […]
Assay tubes containing [^3H] […] LSD or [^3H]Ketanserin were determined as radioactive counts per minute using Packard TopCount.
Displacement of [^3H]LSD or [^3H]Ketanserin from the binding sites was quantified by fitting concentration-binding data to a 4-parameter logistic equation: […]

T1 sequence (P50406 whole entry): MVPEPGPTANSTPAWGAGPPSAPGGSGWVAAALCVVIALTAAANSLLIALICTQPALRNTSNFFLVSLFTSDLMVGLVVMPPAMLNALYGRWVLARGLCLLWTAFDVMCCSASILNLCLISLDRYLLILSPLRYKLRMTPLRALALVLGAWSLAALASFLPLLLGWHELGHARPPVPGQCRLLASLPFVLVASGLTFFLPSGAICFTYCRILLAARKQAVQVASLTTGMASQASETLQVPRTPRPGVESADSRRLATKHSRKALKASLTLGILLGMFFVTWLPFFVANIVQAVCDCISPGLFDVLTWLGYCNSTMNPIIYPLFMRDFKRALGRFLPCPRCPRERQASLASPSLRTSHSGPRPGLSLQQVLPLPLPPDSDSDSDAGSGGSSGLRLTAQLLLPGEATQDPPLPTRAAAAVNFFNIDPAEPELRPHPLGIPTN

Row | SMILES | melting point [°C] | Ki [1] [pM]
1 | O=CNCC1CCCc2cc(NS(=O)(=O)c3cccc(F)c3)ccc21 (stereo not shown) [Compound 7, 3-Fluoro-N-(5-formylaminomethyl-5,6,7,8-tetrahydro-naphthalen-2-yl)-benzenesulfonamide] | 143 to 144 | –
2 | CN(c1ccc2c(c1)CCCC2CN)S(=O)(=O)c1cccc(F)c1 (stereo not shown) (as salt: oxalate) [Compound 9, N-(5-Aminomethyl-5,6,7,8-tetrahydro-naphthalen-2-yl)-3-fluoro-N-methyl-benzenesulfonamide] | 176 to 177 | –
3 | NC(=O)NCC1CCCc2cc(NS(=O)(=O)c3cccc(F)c3)ccc21 (stereo not shown) [Compound 6, 3-Fluoro-N-(5-ureidomethyl-5,6,7,8-tetrahydro-naphthalen-2-yl)-benzenesulfonamide] | 162 to 163 | –
4 | CC(=O)NCC1CCCc2cc(NS(=O)(=O)c3cccc(F)c3)ccc21 (stereo not shown) [Compound 8, N-[6-(3-Fluoro-benzenesulfonylamino)-1,2,3,4-tetrahydro-naphthalen-1-ylmethyl]-acetamide] | 136 to 137 | –
5 | CNCC1CCCc2cc(NS(=O)(=O)c3ccccc3)ccc21 (stereo not shown) [N-(5-Methylaminomethyl-5,6,7,8-tetrahydro-naphthalen-2-yl)-benzenesulfonamide] | – | ~138
6 | CNCC1CCCc2cc(NS(=O)(=O)c3cccc(F)c3)ccc21 (stereo not shown) (as salt: oxalate) [Compound 5, 3-Fluoro-N-(5-methylaminomethyl-5,6,7,8-tetrahydro-naphthalen-2-yl)-benzenesulfonamide] | 135 to 136 | –
7 | NCC1CCCc2cc(NS(=O)(=O)c3ccccc3)ccc21 (stereo not shown) [Compound 2, N-(5-Aminomethyl-5,6,7,8-tetrahydro-naphthalen-2-yl)-benzenesulfonamide] | 164 to 165 | –
